Common to all, as to assay type: biochemical
In one experiment the target is PKC delta kinase (Homo sapiens, UniProt Q05655). Nature of the experiment: PKC delta kinase inhibition, coupled-enzyme NADH absorbance assay. The conditions noted are these: 46 nM PKC delta kinase, 150 μM ATP, 30° C. Here is the method: An assay buffer solution was prepared which consisted of 100 mM HEPES (pH 7.5), 10 mM MgCl2, 25 mM NaCl, 0.1 mM EDTA and 0.01% Brij. An enzyme buffer containing reagents to final assay concentrations of 0.002% Triton X-100, 200 μg/mL Phosphatidylserine, 20 μg/mL Diacylglycerol, 360 μM NADH, 3 mM phosphoenolpyruvate, 70 μg/mL pyruvate kinase, 24 μg/mL lactate dehydrogenase, 2 mM DTT, 150 μM substrate peptide (ERMRPRKRQGSVRRRV SEQ ID NO. 2) and 46 nM PKC delta kinase was prepared in assay buffer. To 16 μL of this enzyme buffer, in a 384 well plate, was added 1 μL of VRT stock solution in DMSO. The mixture was allowed to equilibrate for 10 mins at 30° C. The enzyme reaction was initiated by the addition of 16 μL stock ATP solution prepared in assay buffer to a final assay concentration of 150 μM. Initial rate data was determined from the rate of change of absorbance at 340 nm (corresponding to stoichiometric consumption of NADH) using a Molecular Devices Spectramax plate reader (Sunnyvale, Calif.) over 15 mins at 30° C. For each Ki determination 12 data points covering the VRT concentration range of 0-20 μM were obtained in duplicate (DMSO stocks were prepared from an initial 10 mM VRT stock with subsequent 1:2 serial dilutions). Ki values were calculated from initial rate data by non-linear regression using the Prism software package (Prism 4.0a, Graphpad Software, San Diego, Calif.).

For the next experiment, the target named is PKC theta kinase (Homo sapiens, UniProt Q04759). Nature of the experiment: PKC theta kinase inhibition, coupled-enzyme NADH absorbance assay. The following applies: 18 nM PKC theta kinase, 240 μM ATP, 30° C. Here is the method: An assay buffer solution was prepared which consisted of 100 mM HEPES (pH 7.5), 10 mM MgCl2, 25 mM NaCl, 0.1 mM EDTA and 0.01% Brij. An enzyme buffer containing reagents to final assay concentrations of 0.00001% Triton X-100, 200 μg/mL Phosphatidylserine, 20 μg/mL Diacylglycerol, 360 μM NADH, 3 mM phosphoenolpyruvate, 70 μg/mL pyruvate kinase, 24 μg/mL lactate dehydrogenase, 2 mM DTT, 100 μM substrate peptide (ERMRPRKRQGSVRRRV SEQ ID NO. 1) and 18 nM PKC theta kinase was prepared in assay buffer. To 60 μL of this enzyme buffer, in a 384 well plate, was added 2 μL of VRT stock solution in DMSO. The mixture was allowed to equilibrate for 10 mins at 30° C. The enzyme reaction was initiated by the addition of 5 μL stock ATP solution prepared in assay buffer to a final assay concentration of 240 μM. Initial rate data was determined from the rate of change of absorbance at 340 nm (corresponding to stoichiometric consumption of NADH) using a Molecular Devices Spectramax plate reader (Sunnyvale, Calif.) over 15 mins at 30° C. For each Ki determination 12 data points covering the VRT concentration range of 0-20 μM were obtained in duplicate (DMSO stocks were prepared from an initial 10 mM VRT stock with subsequent 1:2 serial dilutions). Ki values were calculated from initial rate data by non-linear regression using the Prism software package (Prism 4.0a, Graphpad Software, San Diego, Calif.).

Another experiment concerns the target PKC alpha kinase (Homo sapiens, UniProt P17252). Nature of the experiment: PKC alpha kinase inhibition, coupled-enzyme NADH absorbance assay. The following applies: 4.5 nM PKC alpha kinase, 130 μM ATP, 100 μM CaCl2, 30° C. The procedure:
An assay buffer solution was prepared which consisted of 100 mM HEPES (pH 7.5), 10 mM MgCl2, 25 mM NaCl, 0.1 mM EDTA, 100 μM CaCl2 and 0.01% Brij. An enzyme buffer containing reagents to final assay concentrations of 0.002% Triton X-100, 100 μg/mL Phosphatidylserine, 20 μg/mL Diacylglycerol, 360 μM NADH, 3 mM phosphoenolpyruvate, […], 24 μg/mL lactate dehydrogenase, 2 mM DTT, 150 μM substrate peptide (RRRRRKGSFKRKA SEQ ID NO. 3) and 4.5 nM PKC alpha kinase was prepared in assay buffer. To 16 μL of this enzyme buffer, in a 384 well plate, was added 1 μL of VRT stock solution in DMSO. The mixture was allowed to equilibrate for 10 mins at 30° C. The enzyme reaction was initiated by the addition of 16 μL stock ATP solution prepared in assay buffer to a final assay concentration of 130 μM. Initial rate data was determined from the rate of change of absorbance at 340 nm (corresponding to stoichiometric consumption of NADH) using a Molecular Devices Spectramax plate reader (Sunnyvale, Calif.) over 15 mins at 30° C. For each Ki determination 12 data points covering the VRT concentration range of 0-20 μM were obtained in duplicate (DMSO stocks were prepared from an initial 10 mM VRT stock with subsequent 1:2 serial dilutions). Ki values were calculated from initial rate data by non-linear regression using the Prism software package (Prism 4.0a, Graphpad Software, San Diego, Calif.).

This passage reports Ki results from patent publication US8541445B2, “Pyrazolopyridines” (Vertex Pharmaceuticals Incorporated, priority 2009, dated 2013).

Molecules are shown by their SMILES.

Sequence of PKC delta kinase (Q05655 whole entry): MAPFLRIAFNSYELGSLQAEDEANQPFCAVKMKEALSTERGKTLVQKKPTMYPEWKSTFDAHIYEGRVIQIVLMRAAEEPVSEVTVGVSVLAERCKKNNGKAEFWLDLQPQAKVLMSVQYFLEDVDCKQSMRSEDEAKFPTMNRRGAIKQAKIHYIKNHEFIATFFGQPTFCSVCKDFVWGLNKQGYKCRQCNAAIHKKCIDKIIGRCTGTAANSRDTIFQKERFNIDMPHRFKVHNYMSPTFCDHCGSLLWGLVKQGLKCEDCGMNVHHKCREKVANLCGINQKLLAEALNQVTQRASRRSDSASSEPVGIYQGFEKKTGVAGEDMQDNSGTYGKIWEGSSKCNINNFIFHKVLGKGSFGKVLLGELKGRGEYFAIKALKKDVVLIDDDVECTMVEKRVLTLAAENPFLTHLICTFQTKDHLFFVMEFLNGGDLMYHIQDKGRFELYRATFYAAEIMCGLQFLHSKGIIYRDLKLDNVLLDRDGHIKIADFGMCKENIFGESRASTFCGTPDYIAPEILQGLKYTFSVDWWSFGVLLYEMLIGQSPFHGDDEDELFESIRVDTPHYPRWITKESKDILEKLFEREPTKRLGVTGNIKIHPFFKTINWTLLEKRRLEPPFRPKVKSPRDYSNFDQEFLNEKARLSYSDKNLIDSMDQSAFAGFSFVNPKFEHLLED
Sequence of PKC theta kinase (Q04759 whole entry): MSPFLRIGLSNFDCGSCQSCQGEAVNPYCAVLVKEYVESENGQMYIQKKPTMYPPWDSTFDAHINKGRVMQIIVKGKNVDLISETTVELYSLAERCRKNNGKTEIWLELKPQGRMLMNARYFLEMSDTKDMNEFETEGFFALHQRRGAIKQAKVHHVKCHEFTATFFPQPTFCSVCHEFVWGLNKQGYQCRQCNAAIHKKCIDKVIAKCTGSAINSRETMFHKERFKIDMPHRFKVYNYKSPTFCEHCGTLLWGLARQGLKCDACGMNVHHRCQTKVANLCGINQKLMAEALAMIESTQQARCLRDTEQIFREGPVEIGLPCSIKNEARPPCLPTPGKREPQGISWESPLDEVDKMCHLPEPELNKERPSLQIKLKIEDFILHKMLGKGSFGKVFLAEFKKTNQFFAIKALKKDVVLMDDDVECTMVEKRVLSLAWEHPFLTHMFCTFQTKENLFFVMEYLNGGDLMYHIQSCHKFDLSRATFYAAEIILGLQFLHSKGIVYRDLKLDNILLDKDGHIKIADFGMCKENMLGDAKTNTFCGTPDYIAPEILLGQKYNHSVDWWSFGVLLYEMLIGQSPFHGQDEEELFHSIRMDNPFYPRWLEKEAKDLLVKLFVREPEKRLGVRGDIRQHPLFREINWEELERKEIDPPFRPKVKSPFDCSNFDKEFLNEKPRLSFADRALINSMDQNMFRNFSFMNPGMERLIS

On to `N#CCc1csc(-c2ccnc3[nH]ncc23)n1` [Compound 1, 2-(2-(1H-pyrazolo[3,4-b]pyridin-4-yl)thiazol-4-yl)ethanenitrile], for which the figures for the Ki at PKC delta kinase, on PKC theta kinase and on PKC alpha kinase were less than 2800 nM, less than 500 nM and greater than 1250 nM, respectively.
For `CC(C)(C#N)c1csc(-c2ccnc3[nH]ncc23)n1` [Compound 2, 2-(2-(1H-pyrazolo[3,4-b]pyridin-4-yl)thiazol-4-yl)-2-methyl propanenitrile] the same measures were less than 500 nM, less than 50 nM and less than 2800 nM.
For `CC(C)(CN)c1csc(-c2ccnc3[nH]ncc23)n1` [Compound 3, 2-(2-(1H-pyrazolo[3,4-b]pyridin-4-yl)thiazol-4-yl)-2-methylpropan-1-amine], the figures for the inhibition constant Ki on PKC delta kinase, at PKC theta kinase and on PKC alpha kinase were less than 500 nM, less than 50 nM and less than 2800 nM, respectively.
In the same order, the values of `Cc1sc(-c2ccnc3[nH]ncc23)nc1C(C)(C)CN` [Compound 4, 2-methyl-2-(5-methyl-2-(1H-pyrazolo[3,4-b]pyridin-4-yl)thiazol-4-yl)propan-1-amine] are less than 500 nM, less than 500 nM and less than 2800 nM.
In the same order, the values of `CCC(C#N)c1csc(-c2ccnc3[nH]ncc23)n1` (stereo not drawn) [Compound 5] are less than 500 nM, less than 50 nM and less than 500 nM.
As to `CCC(C)(C#N)c1csc(-c2ccnc3[nH]ncc23)n1` (stereo not drawn) [Compound 6], the values for the inhibitory constant (Ki) on PKC delta kinase, on PKC theta kinase and at PKC alpha kinase were less than 500 nM, less than 50 nM and less than 2800 nM, respectively.
Turning to `CCC(C#N)(CC)c1csc(-c2ccnc3[nH]ncc23)n1` [Compound 7], the Ki is less than 500 nM on PKC delta kinase, less than 50 nM at PKC theta kinase and less than 500 nM on PKC alpha kinase.
As to `CCC(C)(C#N)c1csc(-c2ccnc3[nH]nc(Cl)c23)n1` (stereo not drawn) [Compound 8], the Ki was less than 500 nM at PKC delta kinase, less than 50 nM at PKC theta kinase and less than 2800 nM at PKC alpha kinase.
Regarding `CCC(CN)c1csc(-c2ccnc3[nH]ncc23)n1` (stereo not drawn) [Compound 9], the values for the inhibition constant (Ki) at PKC delta kinase, on PKC theta kinase and on PKC alpha kinase were less than 500 nM, less than 50 nM and greater than 1250 nM, respectively.
In the same order, the values of `CCC(C)(CN)c1csc(-c2ccnc3[nH]ncc23)n1` (stereo not drawn) [Compound 10] are less than 500 nM, less than 50 nM and less than 2800 nM.
For `CCC(C)(CN)c1csc(-c2ccnc3[nH]nc(Cl)c23)n1` (stereo not drawn) [Compound 11] the same measures were less than 50 nM, less than 50 nM and less than 500 nM.
For `CC1(CN)CCCc2sc(-c3ccnc4[nH]ncc34)nc21` (stereo not drawn) [Compound 12, (4-methyl-2-(1H-pyrazolo[3,4-b]pyridin-4-yl)-4,5,6,7-tetrahydrobenzo[d]thiazol-4-yl)methanamine] the same measures were less than 2800 nM, less than 500 nM and greater than 1250 nM.
For the compound `CCC(C)(CN)c1csc(-c2ccnc3[nH]ncc23)c1` (stereo not drawn) [Compound 13, 2-(5-(1H-pyrazolo[3,4-b]pyridin-4-yl)thiophen-3-yl)-2-methylbutan-1-amine], the Ki was less than 500 nM at PKC delta kinase, less than 50 nM on PKC theta kinase and less than 500 nM on PKC alpha kinase.
In the case of `CCC(C)(CN)c1ccsc1-c1ccnc2[nH]ncc12` (stereo not drawn) [Compound 14], the values for the Ki at PKC delta kinase, at PKC theta kinase and on PKC alpha kinase were greater than 2000 nM, less than 500 nM and greater than 1250 nM, respectively.
In the same order, the values of `CCC(C#N)n1cc(-c2ccnc3[nH]ncc23)cn1` (stereo not drawn) [Compound 15, 2-(4-(1H-pyrazolo[3,4-b]pyridin-4-yl)-1H-pyrazol-1-yl)butanenitrile] are less than 2800 nM, less than 500 nM and greater than 1250 nM.
For `NCCn1cc(-c2ccnc3[nH]ncc23)cn1` [Compound 16] the same measures were less than 2800 nM, less than 500 nM and greater than 1250 nM.
As for `CCC(CN)n1cc(-c2ccnc3[nH]ncc23)cn1` (stereo not drawn) [Compound 17, 2-(4-(1H-pyrazolo[3,4-b]pyridin-4-yl)-1H-pyrazol-1-yl)butan-1-amine], the Ki is less than 2800 nM at PKC delta kinase, less than 2800 nM on PKC theta kinase and greater than 1250 nM on PKC alpha kinase.

The term Ki denotes the equilibrium dissociation constant of an inhibitor or competing ligand from its target. A high value points to weaker binding.
